What all share (assay type): cell-based
For data set [1], the system named is HepAD38 cells. Kind of data set: Apoptosis in HBV-replicating HepAD38 cells by immunoblot of pro-caspase-3 and caspase-3. Particulars: 250 nM or 500 nM added on day 8 for 48 h or day 9 for 24 h. An excerpt: Whole cell extract isolated without (−) or with (+) 1 addition of BI 2536 were immunoblotted for hepatitis B virus core antigen, caspase 3 and cleaved/active caspase. […] Expression of viral RNA was quantified by real-time PCR employing primer pairs described by Zhang et al. (Hepatology 53:1476-1485, 2011). Results are the average from two independent WCE preparations. Error bars indicate+/−standard error of the mean. […] Quantification of indicated proteins is by ImageJ software vs. actin. Results are the average from two independent WCE preparations. Error bars indicate+/−standard error of the mean.
(§1) Employing the HepAD38 cell line that supports hepatitis B virus replication following tetracycline removal (Ladner et al., Antimicrobial Agents and Chemotherapy, 41:1715-1720, 1997), viral replication as well as expression of the Suz12-repressed and proliferation cluster genes were quantified 10 days after induction of hepatitis B virus replication (FIG. 7). Also, the effect of Plk1 inhibition on viral replication and expression of the proliferation cluster and Suz12 target genes was investigated. […] Under these conditions of Plk1 inhibition, expression of the proliferation cluster and Suz12-repressed genes on day 10 of hepatitis B virus replication was quantified (FIG. 7C and D). Expression of both gene clusters increased in the presence of hepatitis B virus replication (FIG. 7C and D).
For orientation: A western blot detects proteins with antibodies after separation by electrophoresis.

The test system of data set [2] is proliferation gene cluster and Suz12 repressed genes. Kind of data set: Real-time PCR of proliferation gene cluster and Suz12 repressed genes in HepAD38 cells. The following applies: day 10 of HBV replication, 500 nM for 24 h, relative to GAPDH. As for the experimental part:
(§2) FIGS. 7A-D show enhanced expression of the Suz12 repressed genes and proliferation genes in the presence of hepatitis B virus replication. […] HepAD38 cells were grown with (+) or without (−) tetracycline for 10 days, i.e. without (−) or with (+) hepatitis B virus replication, respectively. Hepatitis B virus genome equivalents were quantified by real-time PCR of DNA isolated from purified intracellular virions as described (Wang et al., Hepatology, 53:1137-47, 2011). (Left panel) Effect of DMSO addition (5.0 μl) on hepatitis B virus replication. (Right panel) 250 nM or 500 nM BI 2536 dissolved in DMSO (5.0 μl) added on day 8 for 48 h or day 9 for 24 h, as indicated, prior to cell harvesting. Results represent the average of three independent experiments. Error bars indicate+/−standard 1 error of the mean. […] Relative intensity of indicated protein levels was quantified by ImageJ software vs. actin. A representative experiment is shown from three independent experiments. […] Quantification is relative to GAPDH used as internal control. Results are from three independent RNA isolations. PCR assays were performed in triplicates. Error bars indicate+/−standard error of the mean.
cDNA was synthesized from 2.0 μg total RNA using iSCRIPT cDNA synthesis kit (Bio-Rad). Real-time PCR reactions were performed in triplicates and normalized to GAPDH.
as §1, with “Expression of both gene clusters increased in the presence of hepatitis B virus replication (FIG. 7C and D).” left out
(In qPCR the cycle at which signal appears reflects the starting amount.)

Data set [3] relates to hepatitis B virus. Kind of data set: Hepatitis B virus replication in HepAD38 cells (genome equivalents in intracellular virions, core antigen immunoblots, viral RNA PCR). Particulars: HepAD38 cells without tetracycline 10 days, 250 nM or 500 nM added on day 8 for 48 h or day 9 for 24 h. On the procedure:
as §2, with “actin.” for “actin. A representative experiment is shown from three independent experiments.”, “Results are from three independent RNA isolations. PCR assays were performed in triplicates. Error bars indicate+/−standard error of the mean.” left out
(§3) Whole cell extract isolated without (−) or with (+) 1 addition of BI 2536 were immunoblotted for hepatitis B virus core antigen, caspase 3 and cleaved/active caspase. […] Expression of viral RNA was quantified by real-time PCR employing primer pairs described by Zhang et al. (Hepatology 53:1476-1485, 2011). […] Quantification of indicated proteins is by ImageJ software vs. actin. […]

In data set [4] the test system is Suz12 and Znf198. Kind of data set: Immunoblots of Suz12 and Znf198 protein levels in HepAD38 cell lysates. Particulars: HepAD38 cells, day 10 of HBV replication; 500 nM for 24 h; vs. actin. On the procedure:
as §2, with “actin.” for “actin. A representative experiment is shown from three independent experiments.”, “Results are from three independent RNA isolations. PCR assays were performed in triplicates. Error bars indicate+/−standard error of the mean.” left out
as §3

On to `CC[C@@H]1C(=O)N(C)c2cnc(Nc3ccc(C(=O)NC4CCN(C)CC4)cc3OC)nc2N1C1CCCC1` [BI 2536], for which, in data set [1], the “apoptosis (levels of pro-caspase-3 and caspase-3)” value was “did not induce apoptosis”. In data set [2], the “expression of the Suz12 repressed genes DKK2, EpCAM and IGFII” value is listed as “significantly decreased”; the “expression of the proliferation genes” value is recorded as “significantly reduced”. Besides, the “expression of the Suz12 repressed genes DKK2, EpCAM and IGFII” value in data set [2] (listed as BI2536) was “significantly reduced”. Besides, the “hepatitis B virus replication (genome equivalents in purified intracellular virions, core antigen immunoblots, viral RNA PCR)” value in data set [3] is on record as “suppressed hepatitis B virus replication”. Further, the “hepatitis B virus replication (genome equivalents in purified intracellular virions, core antigen immunoblots, viral RNA PCR)” value in data set [3] (listed as BI2536) is “significantly reduced”. Besides, in data set [4], the “protein level of Suz12” value is reported as “increased” and the “protein level of Znf198” value is given as “increased”.

Values taken from US20140256735A1, “METHOD FOR ASSESSING A LIVER OF A PATIENT HAVING A CHRONIC HEPATITIS B VIRUS INFECTION” (PURDUE RESEARCH FOUNDATION, priority 2011, published 2014).
